{"source": "patent US3948885A", "about": "“5-Hydroxyl-1,2,3-triazole-4-carboxamide nucleoside” (ICN Pharmaceuticals, Inc., priority 1973, dated 1976)", "key": {"measles virus": {"test_system": "measles virus", "assay": "Plaque inhibition (measles virus)", "assay_type": "cell-based", "conditions": "for inhibition at 20 µg/mL / inhibition at 100 µg/mL / inhibition at 500 µg/mL: Measles morbillivirus, 96 h, VERO cells, 4 days at 37°C, >=50% definite, 20 to 50 moderate, <20% little or no antiviral activity; for inhibition at 20 µg/mL: read-out: Percent Plaque Inhibition at 20 µg/mL; for inhibition at 100 µg/mL: read-out: Percent Plaque Inhibition at 100 µg/mL; for inhibition at 500 µg/mL: read-out: Percent Plaque Inhibition at 500 µg/mL"}, "Type 1 herpes simplex": {"test_system": "Type 1 herpes simplex", "assay": "In vitro activity against Type 1 herpes simplex, virus rating (VR) method of Sidwell et al", "assay_type": "cell-based", "conditions": "for virus rating (VR): method of Sidwell et al. Appl. Microbiol. 22, 797 (1971)"}, "[1]": {"conditions": "literature; cited from earlier work"}, "[2]": {"conditions": "D. C. Delong et al, 1971; cited from earlier work"}}, "note": "Entries after “also recorded” stand apart in the source; their conditions may differ. Read-outs that look alike come from different tables or passages of the source."}
{"smiles": "NC(=O)c1[nH]nnc1O", "note": "[Compound 3, 4-Hydroxy-1,2,3-triazole-5-carboxamide]", "values": [{"measurement": "inhibition at 20 µg/mL", "setting": "measles virus", "result": 33, "unit": "%"}, {"measurement": "inhibition at 100 µg/mL", "setting": "measles virus", "result": 60, "unit": "%"}, {"measurement": "inhibition at 500 µg/mL", "setting": "measles virus", "result": 89, "unit": "%"}, {"measurement": "activity against Type 1 herpes simplex (in words)", "setting": "Type 1 herpes simplex", "result": "active"}, {"measurement": "virus rating (VR)", "setting": "Type 1 herpes simplex", "result": 0.6}]}
{"smiles": "NC(=O)c1nn([C@@H]2O[C@H](CO)[C@@H](O)[C@H]2O)nc1O", "note": "[Compound 2, 5-Hydroxy-2-β-D-ribofuranosyl-1,2,3-triazole-4-carboxamide]", "values": [{"measurement": "inhibition at 20 µg/mL", "setting": "measles virus", "result": 0, "unit": "%"}, {"measurement": "inhibition at 100 µg/mL", "setting": "measles virus", "result": 0, "unit": "%"}, {"measurement": "inhibition at 500 µg/mL", "setting": "measles virus", "result": 5, "unit": "%"}]}
{"smiles": "O.[NH-]C(=O)c1[nH]nnc1O.[Na+]", "note": "[Compound 4, 4-Hydroxy-1,2,3-triazole-5-carboxamide Sodium Salt Monohydrate]", "values": [{"measurement": "activity against Type 1 herpes simplex (in words)", "setting": "Type 1 herpes simplex; Sodium Salt Monohydrate", "result": "active"}, {"measurement": "virus rating (VR)", "setting": "Type 1 herpes simplex", "result": 0.5}]}
{"smiles": "NC(=O)c1nnn([C@@H]2O[C@H](CO)[C@@H](O)[C@H]2O)c1O", "note": "[Compound 1, 5-Hydroxy-1-β-D-ribofuranosyl-1,2,3-triazole-4-carboxamide]", "values": [{"measurement": "inhibition at 20 µg/mL", "setting": "measles virus", "result": 33, "unit": "%"}, {"measurement": "inhibition at 100 µg/mL", "setting": "measles virus", "result": 84, "unit": "%"}, {"measurement": "inhibition at 500 µg/mL", "setting": "measles virus", "result": 100, "unit": "%"}, {"measurement": "activity against measles virus (in words)", "setting": "measles virus; in vitro", "result": "exhibited in vitro activity"}, {"measurement": "activity against Type 1 herpes simplex (in words)", "setting": "Type 1 herpes simplex", "result": "exhibited in vitro activity; also recorded: active"}, {"measurement": "virus rating (VR)", "setting": "Type 1 herpes simplex", "result": 0.6}]}
{"smiles": "NC(=O)c1[nH]nc([C@@H]2O[C@H](CO)[C@@H](O)[C@H]2O)c1O", "note": "[pyrazomycin]", "values": [{"measurement": "antiviral activity (in words)", "setting": "[1]", "result": "exhibits a substantial range of antiviral activity"}, {"measurement": "toxicity associated with employment in vivo (in words)", "setting": "[2]", "result": "a degree of toxicity"}]}
{"smiles": "NC(=O)c1ncn([C@@H]2O[C@H](CO)[C@@H](O)[C@H]2O)n1", "note": "[1-β-D-ribofuranosyl-1,2,4-triazole-3-carboxamide]", "values": [{"measurement": "antiviral activity (in words)", "setting": "[1]", "result": "substantial range of antiviral activity"}]}
